Results published in patent US5556744A, “Methods and compositions for diagnosing and treating certain HIV infected patients” (The Trustees of the University of Pennsylvania, priority 1994, dated 1996).

Tested on: maternal HIV+ sera (antibodies)
Experiment: RIA / ELISA binding of maternal HIV+ sera to gp120 and gp41 peptides (Example 3)
Set-up: species or system human
Procedure: Radioimmunoassay (RIA) and enzyme-linked immunosorbent assay (ELISA) were performed by standard methodologies [E. Engvall, Meth. Immunol., 70:419-439 (1980); S. K. Pierce et al, J. Exp. Med., 144:1254-1262 (1976)]. Peptides were dissolved in 0.05M carbonate-bicarbonate buffer (pH 9.6) at a concentration of 10 μg/ml. Fifty μl (500 ng) of the peptides were immobilized in 96 well polyvinylchloride plates (Dynatech Laboratories, Inc.) overnight at 4° C. Plates were washed and non-specific sites were blocked with PBS containing 1% BSA overnight at 4° C.
Dilutions of HIV positive maternal sera were made in blocking buffer at dilutions of 1:50 and 1:500 and incubated in peptide coated plates overnight at 4° C. Plates were washed with PBS and incubated with 75,000 cpm of ^125 I-labelled goat anti-human IgG. The antibody was iodinated by a chloramine T method [W. V. Williams et al, Proc. Natl. Acad. Sci. USA, 85:6488-6492 (1988)]. Plates were washed, dried and counted in a gamma counter to measure specific binding. Normal human serum (i.e., HIV seronegative) was used as a control.
Alternatively, ELISA assays were performed in polystyrene plates (Dynatech Laboratories, Inc) in which 0.05% Tween 20 (Sigma Chemical Co.) was included in the washing, blocking and dilution buffers. The secondary antibody used was goat […] Ig conjugated to horseradish peroxidase (HRP) (Sigma Chemical Co). The substrate used for color development was 3,3',5,5' tetramethyl-benzidine dihydrochloride (TMB) (Sigma Chemical Co). Absorbance of samples was measured in a Dynatech MR5000 (Dynatech Laboratories, Inc.) plate reader and expressed as an optical density at wavelength of 450 nm (OD450).
The following key is used for the designation of specific binding of the maternal sera samples to the peptides: The minus sign, -, is equivalent to the specific OD450 or cpm of sera sample binding to peptide divided by the specific OD450 or cpm of NHS sample binding to peptide, which value is less than 2. The plus sign, +, is equivalent to the specific OD450 or cpm of sera sample binding to peptide divided by the specific OD450 or cpm of NHS sample binding to peptide, which value is between 2 to 3.
Specific binding is defined as the difference between the OD450 or cpm of sera to wells with peptide and the OD450 or cpm of sera to wells without peptide.
Comparisons of number of peptides which bound maternal serum samples were made between the transmission group and the nontransmission group. The data was analyzed using the unpaired student's test. For the determination of differences in the binding of specific peptides between transmission and non-transmission groups, the Spearman's rank-order correlation test was performed.

[1] = Serum No. 1, Non-Transmission Group
[2] = Serum No. 2, Non-Transmission Group
[3] = Serum No. 3, Non-Transmission Group
[4] = Serum No. 4, Transmission Group
[5] = Serum No. 5, Transmission Group
[6] = Serum No. 6, Non-Transmission Group
[7] = Serum No. 7, Non-Transmission Group
[8] = Serum No. 8, Non-Transmission Group
[9] = Serum No. 9, Non-Transmission Group
[10] = Serum No. 10, Transmission Group
[11] = Serum No. 11, Non-Transmission Group
[12] = Serum No. 12, Non-Transmission Group
[13] = Serum No. 13, Transmission Group
[14] = Serum No. 14, Transmission Group
[15] = Serum No. 15, Transmission Group
[16] = Serum No. 16, Non-Transmission Group
[17] = Serum No. 17, Non-Transmission Group
[18] = Serum No. 18, Non-Transmission Group
[19] = Serum No. 19, Transmission Group
[20] = Serum No. 20, Non-Transmission Group

Row | Sequence | Binding of maternal HIV+ serum to peptide (sera/NHS ratio) [1] | Binding of maternal HIV+ serum to peptide (sera/NHS ratio) [2] | Binding of maternal HIV+ serum to peptide (sera/NHS ratio) [3] | Binding of maternal HIV+ serum to peptide (sera/NHS ratio) [4] | Binding of maternal HIV+ serum to peptide (sera/NHS ratio) [5] | Binding of maternal HIV+ serum to peptide (sera/NHS ratio) [6] | Binding of maternal HIV+ serum to peptide (sera/NHS ratio) [7] | Binding of maternal HIV+ serum to peptide (sera/NHS ratio) [8] | Binding of maternal HIV+ serum to peptide (sera/NHS ratio) [9] | Binding of maternal HIV+ serum to peptide (sera/NHS ratio) [10] | Binding of maternal HIV+ serum to peptide (sera/NHS ratio) [11] | Binding of maternal HIV+ serum to peptide (sera/NHS ratio) [12] | Binding of maternal HIV+ serum to peptide (sera/NHS ratio) [13] | Binding of maternal HIV+ serum to peptide (sera/NHS ratio) [14] | Binding of maternal HIV+ serum to peptide (sera/NHS ratio) [15] | Binding of maternal HIV+ serum to peptide (sera/NHS ratio) [16] | Binding of maternal HIV+ serum to peptide (sera/NHS ratio) [17] | Binding of maternal HIV+ serum to peptide (sera/NHS ratio) [18] | Binding of maternal HIV+ serum to peptide (sera/NHS ratio) [19] | Binding of maternal HIV+ serum to peptide (sera/NHS ratio) [20] | other results
1 | KLICTTQVPWNASWS [Peptide 123] | + (which value is between 2 to 3) | - (specific OD450 or cpm of sera sample binding to peptide divided by the specific OD450 or cpm of NHS sample binding to peptide, which value is less than 2) | - (specific OD450 or cpm of sera sample binding to peptide divided by the specific OD450 or cpm of NHS sample binding to peptide, which value is less than 2) | - (specific OD450 or cpm of sera sample binding to peptide divided by the specific OD450 or cpm of NHS sample binding to peptide, which value is less than 2) | - (specific OD450 or cpm of sera sample binding to peptide divided by the specific OD450 or cpm of NHS sample binding to peptide, which value is less than 2) | - (specific OD450 or cpm of sera sample binding to peptide divided by the specific OD450 or cpm of NHS sample binding to peptide, which value is less than 2) | - (specific OD450 or cpm of sera sample binding to peptide divided by the specific OD450 or cpm of NHS sample binding to peptide, which value is less than 2) | - (specific OD450 or cpm of sera sample binding to peptide divided by the specific OD450 or cpm of NHS sample binding to peptide, which value is less than 2) | - (specific OD450 or cpm of sera sample binding to peptide divided by the specific OD450 or cpm of NHS sample binding to peptide, which value is less than 2) | - (specific OD450 or cpm of sera sample binding to peptide divided by the specific OD450 or cpm of NHS sample binding to peptide, which value is less than 2) | - (specific OD450 or cpm of sera sample binding to peptide divided by the specific OD450 or cpm of NHS sample binding to peptide, which value is less than 2) | - (specific OD450 or cpm of sera sample binding to peptide divided by the specific OD450 or cpm of NHS sample binding to peptide, which value is less than 2) | - (specific OD450 or cpm of sera sample binding to peptide divided by the specific OD450 or cpm of NHS sample binding to peptide, which value is less than 2) | - (specific OD450 or cpm of sera sample binding to peptide divided by the specific OD450 or cpm of NHS sample binding to peptide, which value is less than 2) | - (specific OD450 or cpm of sera sample binding to peptide divided by the specific OD450 or cpm of NHS sample binding to peptide, which value is less than 2) | - (specific OD450 or cpm of sera sample binding to peptide divided by the specific OD450 or cpm of NHS sample binding to peptide, which value is less than 2) | - (specific OD450 or cpm of sera sample binding to peptide divided by the specific OD450 or cpm of NHS sample binding to peptide, which value is less than 2) | - (specific OD450 or cpm of sera sample binding to peptide divided by the specific OD450 or cpm of NHS sample binding to peptide, which value is less than 2) | - (specific OD450 or cpm of sera sample binding to peptide divided by the specific OD450 or cpm of NHS sample binding to peptide, which value is less than 2) | - (specific OD450 or cpm of sera sample binding to peptide divided by the specific OD450 or cpm of NHS sample binding to peptide, which value is less than 2) | –
2 | TRKSIRIQRGPGRAF [Peptide 107] | ++ (which value is greater than 3) | ++ (which value is greater than 3) | ++ (which value is greater than 3) | ++ (which value is greater than 3) | ++ (which value is greater than 3) | ++ (which value is greater than 3) | + (which value is between 2 to 3) | ++ (which value is greater than 3) | ++ (which value is greater than 3) | + (which value is between 2 to 3) | ++ (which value is greater than 3) | ++ (which value is greater than 3) | ++ (which value is greater than 3) | ++ (which value is greater than 3) | - (specific OD450 or cpm of sera sample binding to peptide divided by the specific OD450 or cpm of NHS sample binding to peptide, which value is less than 2) | ++ (which value is greater than 3) | ++ (which value is greater than 3) | ++ (which value is greater than 3) | ++ (which value is greater than 3) | ++ (which value is greater than 3) | Percentage of sera samples demonstrating binding to peptide, non-transmitter (Non-transmitter group, n = 13): 100%; Percentage of sera samples demonstrating binding to peptide, transmitter (Transmitter / transmission group, n = 7): 85.7%; Percent of the maternal serum samples that bound to the peptide (all 20 samples): 95%
